Reference: PubChem BioAssay (NCI)
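96-well plates; 48 h exposure; 5 concentrations. Endpoints by linear interpolation between flanking doses. Not reached: highest tested concentration assigned. The concentration for 50% growth inhibition is given as GI50. TGI denotes the concentration required for complete inhibition of growth.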

What was measured:
Assay in all cases: NCI anticancer screen, dose series, 48 h
A498 renal = tested on: A498 renal
HL-60(TB) leukemia = tested on: HL-60(TB) leukemia
M14 melanoma = tested on: M14 melanoma
MOLT-4 leukemia = tested on: MOLT-4 leukemia
SR leukemia = tested on: SR leukemia
BT-549 breast = tested on: BT-549 breast
OVCAR-4 ovarian = tested on: OVCAR-4 ovarian
PC-3 prostate = tested on: PC-3 prostate
SK-MEL-28 melanoma = tested on: SK-MEL-28 melanoma
UACC-257 melanoma = tested on: UACC-257 melanoma
UACC-62 melanoma = tested on: UACC-62 melanoma

Row | SMILES | TGI (A498 renal) [µM] | GI50 (HL-60(TB) leukemia) [µM] | TGI (HL-60(TB) leukemia) [µM] | GI50 (M14 melanoma) [µM] | TGI (M14 melanoma) [µM] | TGI (MOLT-4 leukemia) [µM] | GI50 (SR leukemia) [µM] | TGI (SR leukemia) [µM] | GI50 (BT-549 breast) [µM] | TGI (BT-549 breast) [µM] | GI50 (OVCAR-4 ovarian) [µM] | TGI (OVCAR-4 ovarian) [µM] | GI50 (PC-3 prostate) [µM] | TGI (PC-3 prostate) [µM] | GI50 (SK-MEL-28 melanoma) [µM] | TGI (SK-MEL-28 melanoma) [µM] | GI50 (UACC-257 melanoma) [µM] | TGI (UACC-257 melanoma) [µM] | GI50 (UACC-62 melanoma) [µM] | TGI (UACC-62 melanoma) [µM]
1 | COc1cc2cc(C(=O)N3C[C@H](CCl)c4c3cc(N)c3ccccc43)[nH]c2c(OC)c1OC | 0.0318 | 0.0171 | 0.164 | 0.005 | 0.0137 | 0.246 | 0.005 | > 50 |  |  |  |  |  |  |  |  |  |  |  | 
2 | COc1cc(S(=O)(=O)Nc2ccc(C(=O)/C=C/c3ccc(O)cc3)cc2)ccc1F |  |  |  |  |  |  |  |  | > 100 | > 100 | > 100 | > 100 | > 100 | > 100 | > 100 | > 100 | > 100 | > 100 | 57.6 | > 100
